Data: paper PMC4763182 (Scientific Reports, 2016)

Key:
[1] = system: Stx2 cytotoxicity toward HeLa cells
[2] = system: recombinant histidine-tagged Stx2B subunit (2BH); assay type: binding, Escherichia coli
[3] = system: binding of 125I-Stx2 to HeLa cells; assay type: cell-based

HNPMSFPTPRLY [HN-11]
inhibitory effect on Stx2 cytotoxicity [1]: Almost no inhibitory effect
concentration dependence of binding to 2BH [2]: did not significantly change
inhibitory effect on the uptake of Stx2 [3]: almost no inhibitory effect
